Experimental data taken from patent publication US20210278408A1, “METHODS OF TREATMENT OF CANCER WITH SUBSTITUTED PYRROLE AND PYRAZOLE COMPOUNDS AND DIAGNOSIS OF CANCERS SUSCEPTIBLE TO TREATMENT WITH SUBSTITUTED PYRROLE AND PYRAZOLE COMPOUNDS” (Bantam Pharmaceutical, LLC, priority 2018, published 2021).
Like-named read-outs stand apart in the source and are kept apart here.

Test system: 407 cancer cell lines
Test: Cell viability of cancer cell lines (IC50), CellTiter-Glo Viability Assay, 96 h
Format: cell-based
Conditions: for IC50: read-out: Absolute IC50
Procedure: Viability was determined by using the 50% inhibitory concentration (IC50) as determined with the CellTiter-Glo® Viability Assay (Promega).
Experiments were initiated by first thawing and equilibrating the CellTiter-Glo® Buffer to room temperature. The lyophilized CellTiter-Glo® Substrate was also equilibrated to room temperature. The lyophilized substrate was reconstituted with the CellTiter-Glo® buffer to form the CellTiter-Glo® Reagent.
Cells were harvested during the logarithmic growth period, counted, and the cell concentration adjusted to 4.44×10^4 cells/mL using culture medium.
Cells were allowed to grow overnight and the following day, the TO reading was obtained by adding 10 μL culture medium to each well of Plate A. The plate was allowed to equilibrate at room temperature for thirty minutes, after which 50 μL CellTiter-Glo® reagent was added to each well. The contents were mixed for 5 min on an orbital shaker to induce cell lysis. Plates were incubated for 20 minutes to stabilize the luminescent signal and the TO luminescence recorded.
Test plate B was incubated for 96 h in the humidified incubator at 37° C. with 5% CO2.
Following the incubation, the plate was equilibrated at room temperature for thirty minutes. CellTiter-Glo® (50 μL) was added to each well of the plate and contents mixed for five minutes on an orbital shaker to induce cell lysis. The luminescent signal was allowed to stabilize at room temperature for 20 minutes and the luminescence recorded.
IC50 (EC50) was calculated using a dose-response curve, fitted using a nonlinear regression model with a sigmoidal dose response. Survival rate was calculated using the formula:
The Surviving rate (%)=(LumTest article−LumMedium control)/(LumNon-treated−LumMedium control)×100%.
Absolute IC50 (EC50) was calculated according to the dose-response curve generated by the statistical software (GraphPad Prism 5.0).

## Cc1nn(-c2nc(-c3ccc(C(F)(F)F)cc3)c(SC(C)C)s2)c(C(=O)O)c1-c1cccc(F)c1 [Compound A197, 4-(3-fluorophenyl)-1-(5-(isopropylthio)-4-(4-(trifluoromethyl)phenyl)thiazol-2-yl)-3-methyl-1H-pyrazole-5-carboxylic acid]
22Rv1 cells, 96 h
  % inhibition at top conc.: 68.15%
5637 cells, 96 h
  % inhibition at top conc.: 68.06%
96 h, 5637 cells, 96 h
  IC50: 490 nM
96 h, A3/KAW cells, 96 h
  IC50: 290 nM
96 h, ASH-3 cells, 96 h
  IC50: > 30000 nM
96 h, C4-2, 96 h
  IC50: > 30000 nM
96 h, CCK-81 cells, 96 h
  IC50: 320 nM
96 h, COV644 cells, 96 h
  IC50: > 30000 nM
96 h, H4 cells, 96 h
  IC50: 730 nM
96 h, HCC 94 cells, 96 h
  IC50: 820 nM
96 h, HM-7, 96 h
  IC50: > 30000 nM
96 h, IHH-4 cells, 96 h
  IC50: 900 nM
96 h, IM95m cells, 96 h
  IC50: 780 nM
96 h, JHH-5 cells, 96 h
  IC50: > 30000 nM
96 h, M059K cells, 96 h
  IC50: 1660 nM
96 h, MC/CAR cells, 96 h
  IC50: 3280 nM
96 h, NAMALWA cells, 96 h
  IC50: 510 nM
96 h, OCUM-2D cells, 96 h
  IC50: 1150 nM
96 h, OCUM-2M cells, 96 h
  IC50: 830 nM
96 h, RBE cells, 96 h
  IC50: 840 nM
96 h, SCH cells, 96 h
  IC50: > 30000 nM
96 h, SNU-719 cells, 96 h
  IC50: > 30000 nM
96 h, SNU-761 cells, 96 h
  IC50: 1110 nM
96 h, SNU-2535 cells, 96 h
  IC50: 750 nM
96 h, SNU-C5 cells, 96 h
  IC50: > 30000 nM
96 h, SW 156 cells, 96 h
  IC50: 2390 nM
96 h, T.Tn cells, 96 h
  IC50: 840 nM
96 h, TJ905 cells, 96 h
  IC50: > 30000 nM
96 h, YCC-1 cells, 96 h
  IC50: > 30000 nM
96 h, YCC-2 cells, 96 h
  IC50: > 30000 nM
96 h, YCC-6 cells, 96 h
  IC50: 540 nM
96 h, YCC-10, 96 h
  IC50: > 30000 nM
A875, 96 h, A875 cells, 96 h
  IC50: > 30000 nM
A875 cells, 96 h
  % inhibition at top conc.: 10.68%
A2058, 96 h
  % inhibition at top conc.: 29.09%
A2780 cells, 96 h
  % inhibition at top conc.: 69.48%
A2780cis, 96 h, A2780cis cells, 96 h
  IC50: 540 nM
A-204 cells, 96 h
  % inhibition at top conc.: 37.77%
A-375, 96 h
  % inhibition at top conc.: 52.11%
A-431, 96 h
  % inhibition at top conc.: 66.83%
AGS cells, 96 h
  % inhibition at top conc.: 28.18%
AN3 CA, 96 h
  % inhibition at top conc.: 35.67%
AsPC-1 cells, 96 h
  % inhibition at top conc.: 34.71%
C4-2, 96 h
  % inhibition at top conc.: 45.07%
C666-1 cells, 96 h
  % inhibition at top conc.: 36.20%
CADO-ES1, CADO-ES1
  IC50: 210 nM
CAMA-1, 96 h
  % inhibition at top conc.: 54.72%
COLO 205, 96 h
  % inhibition at top conc.: 60.57%
COLO 320DM, 96 h
  % inhibition at top conc.: 72.92%
COV644 cells, 96 h
  % inhibition at top conc.: 31.57%
Calu-3, 96 h
  % inhibition at top conc.: 65.15%
CoC1, 96 h, CoC1/DDP cells, 96 h
  IC50: > 30000 nM
CoC1, 96 h, CoC1 cells, 96 h
  IC50: 1320 nM
DMS 53 cells, 96 h
  % inhibition at top conc.: 85.18%
DOHH-2 cells, 96 h
  % inhibition at top conc.: 99.99%
DU 145, 96 h
  % inhibition at top conc.: 66.37%
EBC-1, 96 h
  % inhibition at top conc.: 42.21%
EFM-192A, 96 h
  % inhibition at top conc.: 49.39%
EFM-192A, 96 h, EFM-192A, 96 h
  IC50: 520 nM
ES-2 cells, 96 h
  % inhibition at top conc.: 44.22%
FaDu, 96 h
  % inhibition at top conc.: 62.82%
GTL-16 cells, 96 h
  % inhibition at top conc.: 54.64%
HBL1, HBL-1
  IC50: 710 nM
HCC827 cells, 96 h
  % inhibition at top conc.: 63.74%
HCC1500, HCC1500
  IC50: > 30000 nM
HCC2218, 96 h
  % inhibition at top conc.: 33.43%
HCC4006, 96 h
  % inhibition at top conc.: 60.70%
HCCC9810, HCCC-9810
  IC50: > 30000 nM
HCCLM3 cells, 96 h
  % inhibition at top conc.: 29.79%
HGC-27 cells, 96 h
  % inhibition at top conc.: 90.57%
HLF, 96 h, HLF cells, 96 h
  IC50: > 30000 nM
HM-7, 96 h
  % inhibition at top conc.: 43.55%
HT-1080, 96 h
  % inhibition at top conc.: 68.42%
Hep G2/C3A, 96 h
  % inhibition at top conc.: 23.83%
HepG2/C3A, 96 h, Hep G2/C3A, 96 h
  IC50: > 30000 nM
Homo sapiens, 22Rv1, 96 h, 22Rv1 cells, 96 h
  IC50: 430 nM
Homo sapiens, 769-P, 96 h, 769-P cells, 96 h
  IC50: 1040 nM
Homo sapiens, 786-0, 96 h, 786-O cells, 96 h
  IC50: 1150 nM
Homo sapiens, 8505C
  IC50: > 30000 nM
Homo sapiens, A 172, 96 h, A-172 cells, 96 h
  IC50: > 30000 nM
Homo sapiens, A204, 96 h, A-204 cells, 96 h
  IC50: > 30000 nM
Homo sapiens, A253, 96 h, A253 cells, 96 h
  IC50: > 30000 nM
Homo sapiens, A498, 96 h, A498 cells, 96 h
  IC50: 860 nM
Homo sapiens, A549, 96 h, A549 cells, 96 h
  IC50: 1040 nM
Homo sapiens, A673, 96 h, A-673 cells, 96 h
  IC50: 680 nM
Homo sapiens, A2058, 96 h
  IC50: > 30000 nM
Homo sapiens, A2780, 96 h, A2780 cells, 96 h
  IC50: 400 nM
Homo sapiens, A-375, 96 h
  IC50: > 30000 nM
Homo sapiens, A-427, 96 h, A-427 cells, 96 h
  IC50: > 30000 nM
Homo sapiens, A-431, 96 h
  IC50: 1150 nM
Homo sapiens, ACHN, 96 h, ACHN cells, 96 h
  IC50: 790 nM
Homo sapiens, AGS, 96 h, AGS cells, 96 h
  IC50: > 30000 nM
Homo sapiens, AMO1, 96 h, AMO-1 cells, 96 h
  IC50: 1480 nM
Homo sapiens, AN3-CA, 96 h, AN3 CA, 96 h
  IC50: > 30000 nM
Homo sapiens, ARH-77, ARH-77
  IC50: > 30000 nM
Homo sapiens, ASPC1, 96 h, AsPC-1 cells, 96 h
  IC50: > 30000 nM
Homo sapiens, AU565, AU565
  IC50: 10100 nM
Homo sapiens, BT-20, 96 h, BT-20 cells, 96 h
  IC50: > 30000 nM
Homo sapiens, BT-474, 96 h, BT474 cells, 96 h
  IC50: > 30000 nM
Homo sapiens, BT-483, BT-483
  IC50: > 30000 nM
Homo sapiens, BT-549, 96 h, BT-549 cells, 96 h
  IC50: 450 nM
Homo sapiens, BXPC-3, BxPC-3
  IC50: 540 nM
Homo sapiens, C6661, 96 h, C666-1 cells, 96 h
  IC50: > 30000 nM
Homo sapiens, C-33-A, 96 h, C-33 A cells, 96 h
  IC50: > 30000 nM
Homo sapiens, CA46, 96 h, CA46 cells, 96 h
  IC50: 600 nM
Homo sapiens, CAKI-2, Caki-2
  IC50: > 30000 nM
Homo sapiens, CAL-27, 96 h, CAL-27 cells, 96 h
  IC50: 3950 nM
Homo sapiens, CAL-51, CAL-51
  IC50: 1680 nM
Homo sapiens, CAL-120, CAL-120
  IC50: > 30000 nM
Homo sapiens, CAMA-1, 96 h
  IC50: 690 nM
Homo sapiens, CAPAN-1, Capan-1
  IC50: > 30000 nM
Homo sapiens, CCRF-CEM
  IC50: 580 nM
Homo sapiens, CFPAC-1, CFPAC-1
  IC50: > 30000 nM
Homo sapiens, COLO 205, 96 h
  IC50: 1140 nM
Homo sapiens, COLO 320DM, 96 h, COLO 320DM, 96 h
  IC50: 490 nM
Homo sapiens, Ca-Ski, 96 h, Ca Ski cells, 96 h
  IC50: > 30000 nM
Homo sapiens, Caco-2, 96 h, Caco-2 cells, 96 h
  IC50: > 30000 nM
Homo sapiens, Calu-1, Calu-1
  IC50: 1040 nM
Homo sapiens, Calu-3, 96 h
  IC50: 1750 nM
Homo sapiens, Calu-6, Calu-6
  IC50: > 30000 nM
Homo sapiens, Caov-3, 96 h, Caov-3 cells, 96 h
  IC50: > 30000 nM
Homo sapiens, Capan-2, Capan-2
  IC50: > 30000 nM
Homo sapiens, DLD-1, DLD-1
  IC50: 420 nM
Homo sapiens, DMS-53, 96 h, DMS 53 cells, 96 h
  IC50: 1070 nM
